# According to patent US12123051B2, “Nucleic acid ratio determination” (priority 2017, dated 2024):
# Like-named read-outs stand apart in the source and are kept apart here.
# Legend:
# Type in all cases: cell-based
# [1] = tested on: Chlamydia trachomatis strains 1-5; test: Minimum inhibitory concentration (MIC) of antibiotics, predetermined by standard procedures
# Procedure: After infection, there was no change of media at the 4 h time point. Once in an exponential growth phase, 20 hours PI, cells were treated with a single dose of different antibiotics. […] Strains used for this treatment protocol were Strain 1) serovar D lab strain (UW-3/Cx), Strain 2) serovar L2 wild type lab strain (434/Bu), Strain 3) serovar L2 lab created mutant strain, resistant to trimethoprim, Strain 4) serovar L2 lab created mutant strain, resistant to Spectinomycin and Strain 5) serovar L2 lab created mutant strain, resistant to Rifampicin. MIC for all serovars and each antibiotic was predetermined, using standard procedures documented in literature, and listed in the table below. […] Strains 1, 2, 3 and 4 are also susceptible to rifampicin, whilst strain 5 is resistant to that same antibiotic. Samples were then incubated at 37° C. with 5% CO2 and harvested at 1 hour PT, using SPG buffer and extracted immediately. Two biological replicates were obtained for each condition.
# [2] = tested on: Chlamydia trachomatis (serovar D) in HEp-2 cells; test: Antibiotic susceptibility testing by VITA PCR, azithromycin, Treatment Protocol B; settings: Example 7: 0.128 μg/mL at 24 h PI
# Procedure: The levels of GAT and NED were estimated and used to calculate VITA Index.
# (§1) The ΔCt was calculated as the differences between the Ct values of the NED and GAT1/2 signals.
# To measure NED, another region of Chlamydia DNA was co-amplified in the same RT-PCR using primers targeting a region of genomic DNA which is not transcribed. The levels of GAT and NED were estimated and used to calculate VITA Index.
# as §1
# [3] = tested on: Chlamydia trachomatis strains 1-5 in HEp-2 cells; settings: 1 hour PT
# Procedure: After infection, there was no change of media at the 4 h time point. Once in an exponential growth phase, 20 hours PI, cells were treated with a single dose of different antibiotics. […] Strains used for this treatment protocol were Strain 1) serovar D lab strain (UW-3/Cx), Strain 2) serovar L2 wild type lab strain (434/Bu), Strain 3) serovar L2 lab created mutant strain, resistant to trimethoprim, Strain 4) serovar L2 lab created mutant strain, resistant to Spectinomycin and Strain 5) serovar L2 lab created mutant strain, resistant to Rifampicin. […] Samples were then incubated at 37° C. with 5% CO2 and harvested at 1 hour PT, using SPG buffer and extracted immediately. Two biological replicates were obtained for each condition.
# The following example analyses the susceptibility of bacteria to a given drug, by estimation of the change of GAT levels relative to NED in TNA samples. These were then compared between samples treated with antibiotic and not treated (control). […] Treatment was as described in example 1, Treatment E (1.1.5). To obtain a measure GAT, Chlamydia DNA and RNA was amplified by RT-PCR using primers targeting two different locations of the omp1 gene and its transcripts. To measure NED, another region of Chlamydia DNA was co-amplified in the same RT-PCR using primers targeting a region of genomic DNA which is not transcribed. The levels of GAT and NED were estimated and used to calculate VITA Index. Further to this the VITA Indices of treated and untreated samples were used to calculate the ΔVITA Ratio.
# Partzyme oligonucleotides, Reporter substrates and PCR primers used for amplification and detection of GAT1, GAT2 and NED were as per example 9 (9.1, 9.2 and 9.3 respectively). The RT-PCR conditions used were as described in Example 9 (9.5) and reactions contained either 5 μL of TNA template (1/1000 dilution) or no target (dH2O).
# (§2) Chlamydia DNA and RNA from 2 GAT regions and one NED region, were co-amplified and detected in single RT-PCR from TNA extracted from chlamydia cultures. These cultures were treated with antibiotic or left untreated (control) at an exponential growth phase and harvested at 1 hour post treatment. […] The ΔCt was calculated as the differences between the Ct values of the NED and GAT1/2 signals.
# The following example analyses the susceptibility of bacteria to a given drug, by estimation of the change of GAT levels relative to NED in TNA samples. These were then compared between samples treated with antibiotic and not treated (control). […] To obtain a measure GAT, Chlamydia DNA and RNA was amplified by RT-PCR using primers targeting two different locations of the omp1 gene and its transcripts. To measure NED, another region of Chlamydia DNA was co-amplified in the same RT-PCR using primers targeting a region of genomic DNA which is not transcribed. The levels of GAT and NED were estimated and used to calculate VITA Index. Further to this the VITA Indices of treated and untreated samples were used to calculate the ΔVITA.
# as §2, with “antibiotic (Rifampicin)” for “antibiotic”, “(control) during the” for “(control) at an”, “at one” for “at 1”
# [4] = tested on: Chlamydia trachomatis strain 1 and strain 5 in HEp-2 cells; test: Antibiotic susceptibility testing by VITA PCR, rifampicin, short incubation, Treatment Protocol C; settings: for ΔVITA Ratio A/B: 0.256 μg/mL; for VITA Index: plus antibiotic 0.256 μg/mL
# Procedure: After infection, there was no change of media at the 4 hour time point, essentially creating an unsynchronised population, which would be more similar to in vivo conditions. Once at an exponential growth phase, 20 hours PI, treatment was applied. This was achieved by replacing the DMEM for each well, with addition of either i) no antibiotic, or ii) antibiotic (0.256 μg/mL of Rifampicin). Samples were then either incubated at 37° C. with 5% CO2, and harvested after 5 minutes PT; or incubated at room temperature and harvested after 15 minutes PT. SPG buffer was used for harvest and TNA was extracted immediately after. Strains used for this treatment protocol were Strain 1) serovar D lab strain (UW-3/Cx), susceptible to rifampicin, and Strain 5) serovar L2 lab created mutant strain, resistant to Rifampicin.
# The following example estimates the change of GAT levels relative to NED in TNA samples extracted from HEp-2 cells which had been infected with Chlamydia trachomatis strain 1 and strain 5 (serovar D lab strain and serovar L2 strain resistant to rifampicin respectively). TNA was extracted from cells, which had been either treated with the antibiotic Rifampicin at a concentration of 0.256 μg/mL, or not treated (control), at 20 hours post infection whilst in an exponential growth phase. Treatment was as described in example 1, Treatment C (1.1.3). To obtain a measure GAT, Chlamydia DNA and RNA was amplified by RT-PCR using primers targeting two different locations of the omp1 gene and its transcripts. To measure NED, another region of Chlamydia DNA was co-amplified in the same RT-PCR using primers targeting a region of genomic DNA which is not transcribed. The levels of GAT and NED were estimated and used to calculate VITA Index. Further to this the VITA Indices of treated and untreated samples were used to calculate the ΔVITA Ratio.
# The reactions contained either 5 μL of TNA template (1/1000 dilution) or no target (dH2O).
# Chlamydia DNA and RNA from 2 regions within the omp1 gene and transcripts (GAT1 and GAT2), and one NED region, were co-amplified and detected in single RT-PCR from TNA extracted from chlamydia cultures. These cultures were treated with antibiotic or left untreated (control) at an exponential growth phase. They were incubated for either 5 minutes at 37° C. (FIG. 7D) or 15 minutes at room temperature (FIG. 7E). […] The results were then compared between no treatment reactions (control) and those treated with antibiotic at each time point (FIGS. 7D-E).
# [5] = Strain 1, serovar D lab strain (UW-3/Cx)
# [6] = Strain 2, serovar L2 wild type lab strain (434/Bu)
# [7] = Strain 3, serovar L2 mutant resistant to trimethoprim
# [8] = Strain 4, serovar L2 mutant resistant to Spectinomycin
# [9] = Strain 5, serovar L2 mutant resistant to Rifampicin
# [10] = Resistant strain (strain 5), 5 min incubation PT at 37° C. with 5% CO2
# [11] = Resistant strain (strain 5), 15 min incubation PT at room temperature
# [12] = Susceptible strain (strain 1), 5 min incubation PT at 37° C. with 5% CO2
# [13] = Susceptible strain (strain 1), 15 min incubation PT at room temperature
compound,measurement,setting,value
CC[C@H]1OC(=O)[C@H](C)[C@@H](O[C@H]2C[C@@](C)(OC)[C@@H](O)[C@H](C)O2)[C@H](C)[C@@H](O[C@@H]2O[C@H](C)C[C@H](N(C)C)[C@H]2O)[C@](C)(O)C[C@@H](C)CN(C)[C@H](C)[C@@H](O)[C@]1(C)O [Azithromycin],"Minimum inhibitory concentration (MIC), antibiotic dose",[1]; [5],0.032 µg/mL
same,"Minimum inhibitory concentration (MIC), antibiotic dose",[1]; [6],0.032 µg/mL
same,"Minimum inhibitory concentration (MIC), antibiotic dose",[1]; [7],0.016 µg/mL
same,"Minimum inhibitory concentration (MIC), antibiotic dose",[1]; [8],0.016 µg/mL
same,"Minimum inhibitory concentration (MIC), antibiotic dose",[1]; [9],0.032 µg/mL
same,Susceptibility according to the MIC analysis,[1]; all strains used,susceptible
same,ΔVITA A/B (no antibiotic / plus antibiotic),[2]; 1 h PT,3.77
same,ΔVITA A/B (no antibiotic / plus antibiotic),[2]; 6 h PT,2.12
C[C@H]1c2cccc(O)c2C(=O)C2=C(O)[C@]3(O)C(=O)C(C(N)=O)=C(O)[C@@H](N(C)C)[C@@H]3[C@@H](O)[C@@H]21 [Doxycycline],ΔVITA Ratio A/B,"[3]; Table 12b: Strain 1, 0.256 μg/mL",1.48
same,VITA Index,"[3]; Table 12b: Strain 1, plus antibiotic 0.256 μg/mL",2.80
same,ΔVITA Ratio A/B,"[3]; Table 12b: Strain 2, 0.256 μg/mL",1.24
same,VITA Index,"[3]; Table 12b: Strain 2, plus antibiotic 0.256 μg/mL",3.92
same,ΔVITA Ratio A/B,"[3]; Table 12b: Strain 3, 0.256 μg/mL",1.32
same,VITA Index,"[3]; Table 12b: Strain 3, plus antibiotic 0.256 μg/mL",5.64
same,ΔVITA Ratio A/B,"[3]; Table 12b: Strain 5, 0.256 μg/mL",1.43
same,VITA Index,"[3]; Table 12b: Strain 5, plus antibiotic 0.256 μg/mL",5.01
same,"Minimum inhibitory concentration (MIC), antibiotic dose",[1]; [5],0.128 µg/mL
same,"Minimum inhibitory concentration (MIC), antibiotic dose",[1]; [6],0.064 µg/mL
same,"Minimum inhibitory concentration (MIC), antibiotic dose",[1]; [7],0.032 µg/mL
same,"Minimum inhibitory concentration (MIC), antibiotic dose",[1]; [8],0.064 µg/mL
same,"Minimum inhibitory concentration (MIC), antibiotic dose",[1]; [9],0.064 µg/mL
CO[C@H]1/C=C/O[C@@]2(C)Oc3c(C)c(O)c4c(O)c(c(/C=N/N5CCN(C)CC5)c(O)c4c3C2=O)NC(=O)/C(C)=C\C=C\[C@H](C)[C@H](O)[C@@H](C)[C@@H](O)[C@@H](C)[C@H](OC(C)=O)[C@@H]1C [Rifampicin],ΔVITA Ratio A/B,[4]; [10],1.07
same,ΔVITA Ratio A/B,[4]; [11],0.91
same,VITA Index,[4]; [10],11.18
same,VITA Index,[4]; [11],11.41
same,ΔVITA Ratio A/B,[4]; [12],1.90
same,ΔVITA Ratio A/B,[4]; [13],1.80
same,VITA Index,[4]; [12],4.69
same,VITA Index,[4]; [13],4.41
same,ΔVITA Ratio A/B,"[3]; Table 13: Strain 1, 0.256 μg/mL",3.54
same,VITA Index,"[3]; Table 13: Strain 1, plus antibiotic 0.256 μg/mL",1.17
same,ΔVITA Ratio A/B,"[3]; Table 13: Strain 2, 0.256 μg/mL",2.93
same,VITA Index,"[3]; Table 13: Strain 2, plus antibiotic 0.256 μg/mL",1.66
same,ΔVITA Ratio A/B,"[3]; Table 13: Strain 3, 0.256 μg/mL",4.70
same,VITA Index,"[3]; Table 13: Strain 3, plus antibiotic 0.256 μg/mL",1.58
same,ΔVITA Ratio A/B,"[3]; Table 13: Strain 4, 0.256 μg/mL",5.86
same,VITA Index,"[3]; Table 13: Strain 4, plus antibiotic 0.256 μg/mL",1.68
same,ΔVITA Ratio A/B,"[3]; Table 13: Strain 5 (Rifampicin resistant), 0.256 μg/mL",1.06
same,VITA Index,"[3]; Table 13: Strain 5 (Rifampicin resistant), plus antibiotic 0.256 μg/mL",6.71
same,"Minimum inhibitory concentration (MIC), antibiotic dose",[1]; [5],0.008 µg/mL
same,"Minimum inhibitory concentration (MIC), antibiotic dose",[1]; [6],0.004 µg/mL
same,"Minimum inhibitory concentration (MIC), antibiotic dose",[1]; [7],0.004 µg/mL
same,"Minimum inhibitory concentration (MIC), antibiotic dose",[1]; [8],0.004 µg/mL
same,"Minimum inhibitory concentration (MIC), antibiotic dose",[1]; [9],8.192 µg/mL
